From patent US8829195B2, “Compounds and compositions for inhibiting the activity of ABL1, ABL2 and BCR-ABL1” (Novartis AG, priority 2012, dated 2014)

Assays:
KCL-22 xenograft [1] = experiment: In vivo efficacy in KCL-22 xenograft model, single agent treatment; parameters: species or system mouse
Description: In Vivo Efficacy in KCL-22 Xenograft Model—Single Agent Treatment Compounds of the invention were dosed orally in a mouse KCL-22 xenograft model for 7 days. 6-8 week old female nude mice purchased from Harlan (Indianapolis Ind.) were implanted subcutaneously with 5×10^6 KCL-22 cells in 50% matrigel (BD Biosciences, #354234) in the right dorsal axillary region. […] Compounds of the invention in phosphate buffered saline were prepared weekly and dosed by oral gavage at 3-30 mg/kg twice daily (n=6 mice per dose level). Tumor volume was determined by twice weekly digital calipering and calculated as Length×Width^2/2.

KCL-22 xenograft [2] = experiment: In vivo efficacy in KCL-22 xenograft model, dual agent treatment; parameters: species or system mouse
Description: In Vivo Efficacy in KCL-22 Xenograft Model—Dual Agent Treatment 6-8 week old female nude mice purchased from Harlan (Indianapolis Ind.) were implanted subcutaneously with 2×10^6 KCL-22 cells in 50% matrigel (BD Biosciences, #354234) in the right dorsal axillary region. […] Compounds of the invention in a phosphate-buffered saline solution were prepared weekly and dosed by oral gavage at 30 mg/kg twice daily, and Nilotinib solution was dosed at 75 mg/kg twice daily. Animals received either single agent alone or combination of both simultaneously. Tumor volume was determined by twice weekly digital calipering and calculated as Length×Width^2/2.

[3] = Estimation of human PK parameters and efficacious dose from in vivo PK; settings: estimated from in vivo PK
From the text: In vivo PK parameters can be utilized for the estimation of human PK parameters. Applying various methods known in the art for prediction of human PK, the predicted human clearance can be estimated.

ABL1 (64-515) [4] = molecular target: T1, ABL1 (64-515) (Homo sapiens, UniProt P00519); experiment: Caliper ABL1 (64-515) microfluidic mobility shift assay; assay type: biochemical; settings: Table of Biochemical Data
T1 construct: 3.5 nM ABL (ABL(64-515), produced in-house from E. coli); His6 followed by a PreScission protease cleavage site (N, cleaved yes); made in house; host or cells: E. coli (BL21 (DE3) according to b733)

[5] = molecular target: T2, Ba/F3-BCR-ABL1-T315I cells (Homo sapiens, UniProt P00519, T315I, cells depend on it); experiment: Ba/F3-BCR-ABL1-T315I cell proliferation assay; assay type: cell-based, murine; settings: 48 hours; read-out: Ba/F3-BCR-ABL1-T315I IC50
T2 construct: A similar approach was used to generate Ba/F3 cells that depend on a BCR-ABL1 variant in which threonine 315 is replaced with isoleucine; fused on or other part: P11274 (Breakpoint cluster region protein)

Ba/F3-BCR-ABL1-WT cells = molecular target: T3, Ba/F3-BCR-ABL1-WT cells (Homo sapiens, UniProt P00519); experiment: Ba/F3-BCR-ABL1-WT cell proliferation assay; assay type: cell-based, murine; settings: 48 hours; read-out: Ba/F3-BCR-ABL1-WT IC50
T3 construct: fused on or other part: P11274 (Breakpoint cluster region protein)

ABL1 (64-515) [6] = molecular target: T1, ABL1 (64-515); experiment: Radio ABL1 (64-515) radiometric filter-binding assay; assay type: biochemical

IC50 (ABL1 (64-515) [4]) | GI50 [5] | GI50 (Ba/F3-BCR-ABL1-WT cells) | IC50 (ABL1 (64-515) [6]) | SMILES | other results
0.3 nM | 31 nM | 1.9 nM | 11 nM | O=C(Nc1ccc(SC(F)(F)F)c(F)c1)c1cnc(N2CC[C@@H](O)C2)c(-c2ccn[nH]2)c1 [Example 15, (R)—N-(3-Fluoro-4-((trifluoromethyl)thio)phenyl)-6-(3-hydroxypyrrolidin-1-yl)-5-(1H-pyrazol-5-yl)nicotinamide] | –
0.2 nM | 32 nM | 1.5 nM | 2 nM | O=C(Nc1ccc(SC(F)(F)Cl)cc1)c1cnc(N2CC[C@@H](O)C2)c(-c2ccn[nH]2)c1 [Example 18, (R)—N-(4-((Chlorodifluoromethyl)thio)phenyl)-6-(3-hydroxypyrrolidin-1-yl)-5-(1H-pyrazol-5-yl)nicotinamide] | –
2.5 nM | 133 nM | 4.1 nM | 1 nM | O=C(Nc1ccc(C(F)(F)C(F)(F)Cl)cc1)c1cnc(N2CC[C@@H](O)C2)c(-c2ccn[nH]2)c1 [Example 31, (R)—N-(4-(2-Chloro-1,1,2,2-tetrafluoroethyl)phenyl)-6-(3-hydroxypyrrolidin-1-yl)-5-(1H-pyrazol-5-yl)nicotinamide] | –
2.4 nM | 199 nM | 15.5 nM | 3 nM | O=C(Nc1ccc(S(F)(F)(F)(F)F)cc1)c1cnc(N2CC[C@@H](O)C2)c(-c2ccn[nH]2)c1 [Example 17, (R)-6-(3-Hydroxypyrrolidin-1-yl)-N-(4-(pentafluorosulfanyl)phenyl)-5-(1H-pyrazol-5-yl)nicotinamide] | –
0.3 nM | 44 nM | 1.9 nM | < 0.13 nM | O=C(Nc1ccc(OC(F)(F)Cl)cc1)c1cnc(N2CC[C@H](CO)C2)c(-c2ccn[nH]2)c1 [Example 10, (S)—N-(4-(Chlorodifluoromethoxy)phenyl)-6-(3-(hydroxymethyl)pyrrolidin-1-yl)-5-(1H-pyrazol-5-yl)nicotinamide] | –

The remaining lines, values behind:

SMILES | IC50 (ABL1 (64-515) [4]) | GI50 [5] | GI50 (Ba/F3-BCR-ABL1-WT cells) | IC50 (ABL1 (64-515) [6]) | other results
Cc1cn(-c2cc(NC(=O)c3ccc(C)c(Nc4nccc(-c5cccnc5)n4)c3)cc(C(F)(F)F)c2)cn1 [nilotinib] | – | – | – | – | tumor regression (KCL-22 xenograft [1]; 75 mg/kg twice daily, positive control): 82%; tumor regression (KCL-22 xenograft [2]; nilotinib alone 75 mg/kg twice daily, after 4 week daily treatment): > 84%; tumor volume on relapse (KCL-22 xenograft [2]; nilotinib alone, after the 4 week response, most tumors): > 500 mm^3
O=C(Nc1ccc(OC(F)(F)Cl)cc1)c1cnc(N2CC[C@@H](O)C2)c(-c2ccn[nH]2)c1 [Example 9, (R)—N-(4-(Chlorodifluoromethoxy)phenyl)-6-(3-hydroxypyrrolidin-1-yl)-5-(1H-pyrazol-5-yl)nicotinamide] | – | – | – | – | tumor growth inhibition compared to vehicle-treated mice (KCL-22 xenograft [1]; 3 mg/kg twice daily, oral, 7 days): 45%; tumor regression (KCL-22 xenograft [1]; 7.5 mg/kg twice daily, oral, 7 days): 56%; tumor regression (KCL-22 xenograft [1]; 15 mg/kg twice daily, oral, 7 days): 88%; tumor regression (KCL-22 xenograft [1]; 30 mg/kg twice daily, oral, 7 days): 92%; antitumor activity (FIG. 2) (KCL-22 xenograft [1]; daily treatment, subcutaneous KCL-22 xenografts): Dose-dependent antitumor activity; predicted human clearance [3]: 3 mL/min/kg; Vd ([3]; human, read-out: volume of distribution (human, estimated)): 1 L/kg; response of nilotinib resistant tumors (FIG. 3) (KCL-22 xenograft [2]; 30 mg/kg BID after resistance to 75 mg/kg Nilotinib BID): regression of the tumors
Cn1ccc(-c2cc(C(=O)Nc3ccc(OC(F)(F)Cl)cc3)cnc2N2CC[C@@H](O)C2)n1 [Example 28, (R)—N-(4-(Chlorodifluoromethoxy)phenyl)-6-(3-hydroxypyrrolidin-1-yl)-5-(1-methyl-1H-pyrazol-3-yl)nicotinamide] | 1.9 nM | 150 nM | 7.5 nM | 2.8 nM | –
Cc1cc(-c2cc(C(=O)Nc3ccc(OC(F)(F)Cl)cc3)cnc2N2CC[C@@H](O)C2)[nH]n1 [Example 23, (R)—N-(4-(Chlorodifluoromethoxy)phenyl)-6-(3-hydroxypyrrolidin-1-yl)-5-(3-methyl-1H-pyrazol-5-yl)nicotinamide] | 0.5 nM | 42 nM | 1.7 nM | 7 nM | –
NC[C@@H]1CCN(c2ncc(C(=O)Nc3ccc(OC(F)(F)Cl)cc3)cc2-c2ccn[nH]2)C1 [Example 21, (S)-6-(3-(Aminomethyl)pyrrolidin-1-yl)-N-(4-(chlorodifluoromethoxy)phenyl)-5-(1H-pyrazol-5-yl)nicotinamide] | 1.3 nM | 149 nM | 4 nM | 1 nM | –
